Source: the supplement of paper PMC11061612

Legend:
Assay in all cases: combination Emax (second highest fraction inhibited in the dose matrix, 72 h); higher = more inhibition; extreme values may be limits of the assay
[1] = system: EPLC-272H (Other Solid Carcinomas)
Method in brief: (§1)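 After 24 hours at 37°C and 5% CO2 in 1536-well plates, cells in DMEM/F12 or RPMI plus 10% FBS received two-drug dose matrices for 72 hours. Viability came from CellTiter-Glo 2.0 luminescence and was scaled as inhibition, anchored at 0 by vehicle wells and at 1 by blank wells. Combination Emax is taken as the second-highest inhibition in the matrix, and Bliss excess as the observed combination effect less EA + EB − EA·EB, with EA and EB the single-agent effects.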

NB13 (Neuroblastoma) = system: NB13 (Neuroblastoma)
Method in brief: as §1

HCC70 (Breast Carcinoma) = system: HCC70 (Breast Carcinoma)
Method in brief: as §1

[2] = system: NCI-H2228 (Lung Adenocarcinoma)
Method in brief: as §1

[3] = system: CESS (Acute Myeloid Leukemia)
Method in brief: as §1

5637 (Bladder Carcinoma) = system: 5637 (Bladder Carcinoma)
Method in brief: as §1

KP-N-YN (Neuroblastoma) = system: KP-N-YN (Neuroblastoma)
Method in brief: as §1

[4] = system: HCC1428 (Breast Carcinoma)
Method in brief: as §1

[5] = system: HT55 (Colorectal Carcinoma)
Method in brief: as §1

[6] = system: MHH-ES-1 (Ewing's Sarcoma)
Method in brief: as §1

[7] = system: G-402 (Other Solid Carcinomas)
Method in brief: as §1

[8] = system: ESO26 (Esophageal Adenocarcinoma)
Method in brief: as §1

[9] = system: SK-HEP-1 (Hepatocellular Carcinoma)
Method in brief: as §1

[10] = system: NCI-H2087 (Lung Adenocarcinoma)
Method in brief: as §1

[11] = system: SW620 (Colorectal Carcinoma)
Method in brief: as §1

EW-16 (Ewing's Sarcoma) = system: EW-16 (Ewing's Sarcoma)
Method in brief: as §1

[12] = system: JVM-2 (B-Cell Non-Hodgkin's Lymphoma)
Method in brief: as §1

[13] = system: Jurkat (T-Lymphoblastic Leukemia)
Method in brief: as §1

[14] = system: CGTH-W-1 (Thyroid Gland Carcinoma)
Method in brief: as §1

RH-41 (Rhabdomyosarcoma) = system: RH-41 (Rhabdomyosarcoma)
Method in brief: as §1

| Compound | combination Emax [1] | combination Emax (NB13 (Neuroblastoma)) | combination Emax (HCC70 (Breast Carcinoma)) | combination Emax [2] | combination Emax [3] | combination Emax (5637 (Bladder Carcinoma)) | combination Emax (KP-N-YN (Neuroblastoma)) | combination Emax [4] | combination Emax [5] | combination Emax [6] | combination Emax [7] | combination Emax [8] | combination Emax [9] | combination Emax [10] | combination Emax [11] | combination Emax (EW-16 (Ewing's Sarcoma)) | combination Emax [12] | combination Emax [13] | combination Emax [14] | combination Emax (RH-41 (Rhabdomyosarcoma)) |
| --- | --- | --- | --- | --- | --- | --- | --- | --- | --- | --- | --- | --- | --- | --- | --- | --- | --- | --- | --- | --- |
| CN(C)CCCOc1ccc(-c2ccc3ncc4c(c3c2)n(C2CCOCC2)c(=O)n4C)cn1 [AZD0156] + C=CCn1c(=O)c2cnc(Nc3ccc(N4CCN(C)CC4)cc3)nc2n1-c1cccc(C(C)(C)O)n1 [AZD1775] (first compound max 1 µM, partner max 1 µM) | 0.771 | 0.906 | 0.542 | 0.5 | 0.929 | 0.745 | 0.95 | 0.125 | 0.407 | 0.671 | 0.363 | 0.458 | 0.469 | 0.332 | 0.495 | 0.307 | 0.888 | 0.879 | 0.188 | 0.948 |
| CN(C)CCCOc1ccc(-c2ccc3ncc4c(c3c2)n(C2CCOCC2)c(=O)n4C)cn1 [AZD0156] + CCN(CCO)CCCOc1ccc2c(Nc3cc(CC(=O)Nc4cccc(F)c4)[nH]n3)ncnc2c1 [AZD2811] (first compound max 1 µM, 7x7, partner max 1 µM) | 0.415 | 0.479 | 0.604 | 0.384 | 0.25 | 0.609 | 0.486 | 0.161 | 0.16 | 0.55 | 0.532 | 0.0581 | 0.255 | 0.0658 | 0.158 | 0.423 | 0.719 | 0.309 | 0.196 | 0.235 |
| CN(C)CCCOc1ccc(-c2ccc3ncc4c(c3c2)n(C2CCOCC2)c(=O)n4C)cn1 [AZD0156] + C[C@@H]1COCCN1C2=NC(=NC(=C2)C3(CC3)[S@](=N)(=O)C)C4=C5C=CNC5=NC=C4 [AZD6738] (first compound max 1 µM, 7x7, partner max 10 µM) | 0.903 | 0.906 | 0.829 | 0.517 | 0.923 | 0.712 | 0.973 | 0.132 | 0.514 | 0.638 | 0.534 | 0.414 | 0.391 | 0.666 | 0.566 | 0.695 | 0.849 | 0.898 | 0.35 | 0.874 |
